Values quoted from earlier work, collected in Sander's compilation of Henry's law constants (doi:10.1021/je0497045).

assay: Henry solubility constant Hcp at 298.15 K (mol/(m3 Pa)); details: reference: Plyasunova et al. (2004); cited value

Compound | Henry solubility constant Hcp
CCCCS [1-butanethiol] | 0.0014
CCCCCCCS [1-heptanethiol] | 0.00042
CCCCCCS [1-hexanethiol] | 0.00052
CCCCCS [1-pentanethiol] | 0.00087
CCCS [1-propanethiol] | 0.0017
CSSSC [2,3,4-trithiapentane] | 0.012
CCC(C)S (centres undefined) [2-butanethiol] | 0.0013
CC(C)(C)S [2-methyl-2-propanethiol] | 0.00045
CC(C)CCS [3-methyl-1-butanethiol] | 0.00095
S=C=S [carbon disulfide] | 0.00055
CC(C)SC(C)C [di-(2-propyl)-sulfide] | 0.003
CCSSCC [diethyl disulfide] | 0.004
CCSCC [diethyl sulfide] | 0.0047
CSC [dimethyl sulfide] | 0.0053
CCCSSCCC [dipropyl disulfide] | 0.0022
CCCSCCC [dipropyl sulfide] | 0.0033
CCS [ethanethiol] | 0.0023
CS [methanethiol] | 0.0028
CCCSC [methyl propyl sulfide] | 0.0043
